Measurements from article PMC8227119, “Urinary Elimination of Ecdysterone and Its Metabolites Following a Single-Dose Administration in Humans” (Metabolites, 2021).
Values joined by “and” are separate entries in the source; they are usually repeats but may differ in a detail not shown here. Identical values can stand only once. Like-named read-outs stand apart in the source and are kept apart here.

Key:
[1] = Urinary excretion and pharmacokinetics after a single oral dose of 50 mg of pure ecdysterone (LC-MS/MS of urine); type: in vivo, human; details: for Cmax / half-life: human, urine, po, 50 mg
Description: The study was approved by the ethical committee of the German Sport University Cologne, and was carried out following the regulations of the Helsinki declaration. Twelve healthy subjects (7 females and 5 males) with a mean age (standard deviation [SD]) of 26 (3.1) y, weight of 74 (12.0) kg, and height of 174 (8.3) cm participated in the study. A single-dose of 50 mg of pure ecdysterone dissolved in 50 cl of alcoholic solution was administered to the subjects. All doses were administered at 9.00 a.m. in the morning. The urine samples were collected one day before (blank samples) and five days after the administration of ecdysterone. Sampling time (h) and urine volume (mL) were recorded. Aliquots of urine samples were stored frozen at −18 °C, until analysis.
Urine samples (200 µL) spiked with 10 µL of the ISTD ponasterone (working solution 10 µg/mL) and diluted to 1 mL with methanol:water (10:90, v/v). The tubes were vortex-mixed and then centrifuged at 9677 RCF for 8 min.
The analysis of ecdysterone and its metabolite in calibration and urine samples was performed by LC–MS/MS on an Agilent 1200 Infinity series, coupled to an Ultivo triple quadrupole tandem MS system, utilizing a Jet Stream electrospray ionization (ESI) source and an Ion Funnel (Agilent Technologies GmbH, Waldronn, Germany).
In this study, the excretion profile, the cumulative amount excreted in urine, and the half-life of ecdysterone and its metabolites, after a single-dose administration of 50 mg of pure ecdysterone were evaluated according to [45].
To obtain the excretion rates, Equation (1) was applied:(1) Erate,i=Ci x Vi/ (ti−ti−1)
For each urine sample, the calculated concentration (Ci, ng/mL) of ecdysterone, 14-deoxy-ecdysterone, and 14-deoxy-poststerone was adjusted as a function of the dilution factor applied (1:5) and of the volume of urine collected (Vi, mL), obtaining the corresponding amount of drug in urine (expressed in ng), which was divided by the interval between the time values of the sampling and the previous sampling (ti − ti−1).
The excretion profile curves of ecdysterone and its metabolites for each subject were then obtained by plotting the calculated rate of excretion values (ng/h) versus time (middle-point of sample collection, hours) or simply the calculated concentrations (ng/mL) versus time (sampling time, hours). The first collected interval started at 0 h after the oral administration of ecdysterone at 9 a.m.
For each sample, the amount of drug excreted in urine was calculated and added to the amount of drug recovered in the previous urine sample to obtain the cumulative urinary drug excretion, which was plotted in a graph versus the sampling time (hours).
The half-life using the elimination rate constant (k) was calculated by applying Equation (2):(2) t1/2=ln(2)/k
Two different methods were used to calculate the elimination rate constant (k). In the rate of excretion method, k was obtained from the slope of the elimination phase of the ln-transformed excretion curve (Figure 6).
In the sigma minus method, k was obtained from the slope of the elimination phase of the ln-transformed remaining drug to be excreted.

[2] = Stability of analytes in spiked urine QC samples (bench-top, long term, freeze-thaw); type: in vitro ADME, human; details: vs t = 0, mean n = 3
Description: The stability of ecdysterone and 14-deoxy-ecdysterone in urine was determined in triplicates, using the LQC and HQC samples, which were analyzed immediately and again after storage, as reported in Table 4. Freshly prepared QC samples (at t = 0) were used as baseline to assess the stability.
To evaluate the bench-top stability, LQC and HQC samples were left at room temperature for 4, 8, and 24 h, before analysis. Freeze and thaw stability was evaluated after three cycles for LQC and HQC. Long-term stability was evaluated analyzing the LQC and HQC samples, after storing them at −20 °C for two weeks. The results of the stability tests applied were calculated using the peak area ratio of the analytes to the ISTD, which were compared to the baseline (t = 0). Comparing the mean of the ratios after a specific storage condition to the mean of the ratio at t = 0. The results obtained were all within the ±15%.

[3] = human urine, single oral dose 50 mg ecdysterone
[4] = human urine, single oral dose 50 mg ecdysterone, mean ± SD of 12 subjects (14-deoxy-poststerone n = 5)
[5] = human urine, single oral dose 50 mg ecdysterone, range over subjects

## CC(C)(O)CC[C@@H](O)[C@](C)(O)[C@H]1CC[C@H]2C3=CC(=O)[C@@H]4C[C@@H](O)[C@@H](O)C[C@]4(C)[C@H]3CC[C@]12C [14-deoxy-ecdysterone, Alpha-14-deoxy-ecdysterone]
[1]; 12 subjects, single oral dose 50 mg ecdysterone
  Subjects in whose post-administration urine the analyte was detected: all 12 subjects
[1]; both sexes, human urine, single oral dose 50 mg ecdysterone, mean ± SD of 12 subjects (14-deoxy-poststerone n = 5), read-out: Cmax (maximum urinary concentration)
  Cmax: 1400 ± 1600 ng/mL
[1]; both sexes, human urine, single oral dose 50 mg ecdysterone, mean ± SD of 12 subjects (14-deoxy-poststerone n = 5), read-out: Half Life, Rate of Excretion method (converted)
  half-life: 3.1 ± 1.3 h
[1]; both sexes, human urine, single oral dose 50 mg ecdysterone, mean ± SD of 12 subjects (14-deoxy-poststerone n = 5), read-out: Half Life, Sigma-Minus method (converted)
  half-life: 2.2 ± 0.9 h
[1]; both sexes, human urine, single oral dose 50 mg ecdysterone, range over subjects, read-out: Maximum urinary concentration (Cmax), range over subjects
  Cmax: 100 to 6000 ng/mL
[1]; both sexes, human urine, single oral dose 50 mg ecdysterone, read-out: Urinary half-life (approximate) (converted)
  half-life: ~3 h
[1]; both sexes, human urine, single oral dose 50 mg ecdysterone, mean ± SD of 12 subjects (14-deoxy-poststerone n = 5), read-out: Tmax (time to maximum urinary concentration)
  Tmax: 19.7 ± 8.9 h
[1]; human urine, percent of the 50 mg dose, mean value
  Cumulative urinary excretion percentage relative to dose, mean: 2.3%
[1]; human urine, percent of the 50 mg dose, range over subjects
  Cumulative urinary excretion percentage relative to dose, range over subjects: 0.4–6.1%
[1]; [3]
  Duration of detectability in urine: about 3 days
  First detection in urine after administration (start of detection window): 2.95 h
  Remained detectable in urine until (end of detection window): 75 h
  Urinary half-life (approximate): three
[1]; [4]
  ERmax (maximum urinary rate of excretion): 0.1 ± 0.1 mg/h
  Midpoint Timemax (maximum urinary middle-point time): 17.5 ± 7.0 h
[1]; human urine, single oral dose 50 mg ecdysterone, mean ± SD of 12 subjects (14-deoxy-poststerone n = 10)
  Cumulative Du (cumulative amount excreted in urine): 1.1 ± 0.9 mg
[1]; [5]
  Maximum excretion rate, range over subjects: 0.02 to 0.24 mg/h
  Time of the urine with maximum concentration, range over subjects: 8.5 to 39.5 h and 8.5 to 39.50 h
  Time of the urine with maximum excretion rate, range over subjects: 10.1 to 29.5 h
[1]; in 58.3% of subjects
  Time at which cumulative urinary excretion reaches a plateau: 25 to 40 h
[1]; in the remaining 16.6% of subjects
  Time at which cumulative urinary excretion reaches a plateau: 40 to 62 h
[1]; log-linear rate of excretion versus middle-point time
  Kinetics of urinary elimination: first-order kinetics
[1]; p ≤ 0.05, 5 males, 7 females
  Difference of cumulative urinary excretion percentage between male and female (T-test): No significant difference
[2]; HQC, bench-top room temperature 4 h
  Stability%: 101%
[2]; HQC, bench-top room temperature 8 h
  Stability%: 100%
[2]; HQC, bench-top room temperature 24 h
  Stability%: 101%
[2]; HQC, freeze-thaw 3 cycles
  Stability%: 103%
[2]; HQC, long term 2 weeks at −20 °C
  Stability%: 87%
[2]; LQC, bench-top room temperature 4 h
  Stability%: 103%
[2]; LQC, bench-top room temperature 8 h
  Stability%: 101%
[2]; LQC, bench-top room temperature 24 h
  Stability%: 97%
[2]; LQC, freeze-thaw 3 cycles
  Stability%: 110%
[2]; LQC, long term 2 weeks at −20 °C
  Stability%: 91%
